Experimental data reported in publication PMC6194020, “Cryo-EM structures of human STEAP4 reveal mechanism of iron(III) reduction” (Nature Communications, 2018).
Where a chain is given by its changes, count along the chain named. Names may count otherwise. Each block holds one molecule with its values, some of them ahead of it.

Key:
[1] = molecular target: STEAP4EM (human STEAP4 residues K18-Q456, ΔN17ΔC3), non-TEV cleaved, with C-terminal GFP-Strep3 tag (human); assay: SEC-MALS; non-TEV cleaved STEAP4EM on Superdex200 10/300 increase in 20 mM Tris pH 8.0, 150 mM NaCl, 0.08% digitonin, 0.75 ml/min; protein conjugate analysis to separate protein and micelle
[2] = molecular target: T1, GFP-tagged full-length STEAP4 (Homo sapiens, UniProt Q687X5, S138Q); assay: ferrozine ferric-reductase assay, NADPH varied; type: biochemical; conditions: 200 µM Fe3+-NTA, 10 µM FAD, 37 °C, SEC buffer pH 5.5, digitonin
T1 construct: full-length, C-terminal GFP-Strep3 tag kept; detergent-purified (digitonin), trimer
T1 sequence (Q687X5 1-459 S138Q): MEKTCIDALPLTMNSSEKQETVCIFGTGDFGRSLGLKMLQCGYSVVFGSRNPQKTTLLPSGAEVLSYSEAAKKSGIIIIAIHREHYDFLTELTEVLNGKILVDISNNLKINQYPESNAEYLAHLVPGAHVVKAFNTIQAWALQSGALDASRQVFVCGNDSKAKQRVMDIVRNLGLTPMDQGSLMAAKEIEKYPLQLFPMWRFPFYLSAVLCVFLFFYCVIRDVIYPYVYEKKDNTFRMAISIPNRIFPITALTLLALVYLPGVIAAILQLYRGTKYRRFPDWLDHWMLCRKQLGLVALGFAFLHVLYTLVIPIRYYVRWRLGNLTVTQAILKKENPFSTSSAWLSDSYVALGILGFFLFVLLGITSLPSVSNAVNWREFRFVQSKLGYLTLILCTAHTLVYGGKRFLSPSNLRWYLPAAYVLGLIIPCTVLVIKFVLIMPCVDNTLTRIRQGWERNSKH

[3] = molecular target: T2, GFP-tagged full-length STEAP4 (Homo sapiens, UniProt Q687X5); assay: ferrozine ferric-reductase assay, NADPH varied; type: biochemical; conditions: 200 µM Fe3+-NTA, 10 µM FAD, 37 °C, SEC buffer pH 5.5, digitonin
T2 construct: full-length, C-terminal GFP-Strep3 tag kept; detergent-purified (digitonin), trimer
T2 sequence (Q687X5 1-459): T1 sequence (Q687X5 1-459 S138Q) with Q138S

STEAP4EM [4] = molecular target: T3, STEAP4EM (Homo sapiens, UniProt Q687X5); assay: ferrozine ferric-reductase assay, FAD varied, binding curve fit; type: biochemical; conditions: 200 µM Fe3+-NTA, 75 µM NADPH, 37 °C, SEC buffer pH 5.5, digitonin; Kd from activity curve; also seen in cryo-EM structures
T3 construct: gene STEAP4; residues K18-Q456 (deltaN17 deltaC3), C-terminal GFP-Strep3 tag removed by TEV; codon-optimised, HEK293 GNTI- cells; digitonin-solubilised homotrimer; cytosolic oxidoreductase domain plus transmembrane domain
T3 sequence (Q687X5 18-456): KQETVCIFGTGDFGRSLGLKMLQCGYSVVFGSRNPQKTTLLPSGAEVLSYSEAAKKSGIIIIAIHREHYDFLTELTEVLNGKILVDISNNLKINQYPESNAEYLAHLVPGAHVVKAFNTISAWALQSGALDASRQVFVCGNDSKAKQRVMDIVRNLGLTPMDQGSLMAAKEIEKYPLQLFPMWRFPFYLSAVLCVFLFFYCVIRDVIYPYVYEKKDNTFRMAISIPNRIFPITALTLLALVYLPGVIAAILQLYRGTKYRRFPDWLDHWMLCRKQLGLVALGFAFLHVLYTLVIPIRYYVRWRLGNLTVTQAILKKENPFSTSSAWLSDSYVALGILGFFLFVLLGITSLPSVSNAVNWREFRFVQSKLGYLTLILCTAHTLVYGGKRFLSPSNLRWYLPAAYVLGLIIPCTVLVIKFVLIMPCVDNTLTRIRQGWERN

[5] = molecular target: T2, GFP-tagged full-length STEAP4; assay: ferrozine ferric-reductase assay, FAD varied; type: biochemical; conditions: 200 µM Fe3+-NTA, 75 µM NADPH, 37 °C, SEC buffer pH 5.5, digitonin
STEAP4EM [6] = molecular target: T3, STEAP4EM; assay: ferric-reductase assay with FMN instead of FAD; type: biochemical; conditions: FMN in place of FAD; construct (STEAP4EM or full length) not stated in main text
[7] = substrate: NC(=O)C1=CN([C@@H]2O[C@H](COP(=O)(O)OP(=O)(O)OC[C@H]3O[C@@H](n4cnc5c(N)ncnc54)[C@H](OP(=O)(O)O)[C@@H]3O)[C@@H](O)[C@H]2O)C=CC1; assay: ferrozine ferric-reductase assay, NADPH varied; type: biochemical, Homo sapiens; conditions: 200 µM Fe3+-NTA, 10 µM FAD, 37 °C, SEC buffer pH 5.5, digitonin, also seen in cryo-EM structure
[8] = molecular target: the molecule itself; assay: not stated; purified S138Q mutant; data in Supplementary Fig. 13

stoichiometry N [1]: 3
Molecule: STEAP4EM (human STEAP4 residues K18-Q456, ΔN17ΔC3), non-TEV cleaved, with C-terminal GFP-Strep3 tag (enzyme)

Molecule: NC(=O)C1=CN([C@@H]2O[C@H](COP(=O)(O)OP(=O)(O)OC[C@H]3O[C@@H](n4cnc5c(N)ncnc54)[C@H](OP(=O)(O)O)[C@@H]3O)[C@@H](O)[C@H]2O)C=CC1 [NADPH]
ferrozine ferric-reductase assay, NADPH varied [2]: displayed strongly impaired ferric-reductase activity
ferrozine ferric-reductase assay, NADPH varied [3]: full-length STEAP4 WT and S138Q mutant with varying NADPH concentrations

Kd (STEAP4EM [4]): 1200 nM
Molecule: Cc1cc2nc3c(=O)[nH]c(=O)nc-3n(C[C@H](O)[C@H](O)[C@H](O)COP(=O)(O)OP(=O)(O)OC[C@H]3O[C@@H](n4cnc5c(N)ncnc54)[C@H](O)[C@@H]3O)c2cc1C [FAD]
ferrozine ferric-reductase assay, FAD varied [5]: full-length STEAP4 wildtype (WT) and S138Q mutant with varying FAD concentrations

Molecule: Cc1cc2nc3c(=O)[nH]c(=O)nc-3n(C[C@H](O)[C@H](O)[C@H](O)COP(=O)(O)O)c2cc1C [FMN]
ferric-reductase assay with FMN instead of FAD (STEAP4EM [6]): FMN may act as a cofactor in STEAP4-catalyzed iron reduction

B1: STEAP4EM (Homo sapiens) (protein)
chain: T3 sequence (Q687X5 18-456)
notes: residues K18-Q456 (deltaN17 deltaC3), C-terminal GFP-Strep3 tag removed by TEV; codon-optimised, HEK293 GNTI- cells; digitonin-solubilised homotrimer; cytosolic oxidoreductase domain plus transmembrane domain
Km [7]: 4.2 µM

B2: full-length human STEAP4 S138Q mutant (enzyme, UniProt Q687X5 1-459, looked up)
chain: T1 sequence (Q687X5 1-459 S138Q)
notes: six-transmembrane epithelial antigen of the prostate 4 (STEAP4), human, full length, with S138Q; source: detergent-purified
stoichiometry N [8]: 3
